Data as given in PubChem BioAssay AID1918995 (Molecular Pharmacology Branch, DTP, NCI, 2023).
Several values for one entry are separate records, joined by “and”; a condition that tells them apart may be missing. Equal values may be shown once.

Tested on: 324938-238-R-J1-PDC complex spheroid growth, % test/control
Assay: Anticancer human tumor 324938-238-R-J1-PDC patient-derived bladder carcinoma cell line growth inhibition [AhR]
Settings: for viability, T/C: stronger effect = lower value; active = viability on the fitted dose curve at most 10% of control; inactive = the rest
Procedure, shortened: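 Agents were dosed in half-log steps down from roughly clinical Cmax, or from 10 microM where Cmax was unknown, alone and with AhR antagonists. Read-out: percent test/control growth of tumor spheroids containing HUVEC and MSC stromal cells.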

[1] = curve of first compound, second compound 0.1 µM
[2] = curve of first compound, second compound 0.316 µM
[3] = curve of first compound, second compound 1 µM
[4] = curve of first compound, second compound 3.16 µM
[5] = curve of first compound, second compound 10 µM
[6] = second compound 0.1 µM, first compound 0.0316 µM
[7] = second compound 0.1 µM, first compound 0.1 µM
[8] = second compound 0.1 µM, first compound 0.316 µM
[9] = second compound 0.1 µM, first compound 1 µM
[10] = second compound 0.1 µM, first compound 3.16 µM
[11] = second compound 0.1 µM, first compound 10 µM
[12] = second compound 0.316 µM, first compound 0.0316 µM
[13] = second compound 0.316 µM, first compound 0.1 µM
[14] = second compound 0.316 µM, first compound 0.316 µM
[15] = second compound 0.316 µM, first compound 1 µM
[16] = second compound 0.316 µM, first compound 3.16 µM
[17] = second compound 0.316 µM, first compound 10 µM
[18] = second compound 1 µM, first compound 0.0316 µM
[19] = second compound 1 µM, first compound 0.1 µM
[20] = second compound 1 µM, first compound 0.316 µM
[21] = second compound 1 µM, first compound 1 µM
[22] = second compound 1 µM, first compound 3.16 µM
[23] = second compound 1 µM, first compound 10 µM
[24] = second compound 3.16 µM, first compound 0.0316 µM
[25] = second compound 3.16 µM, first compound 0.1 µM
[26] = second compound 3.16 µM, first compound 0.316 µM
[27] = second compound 3.16 µM, first compound 1 µM
[28] = second compound 3.16 µM, first compound 3.16 µM
[29] = second compound 3.16 µM, first compound 10 µM
[30] = second compound 10 µM, first compound 0.0316 µM
[31] = second compound 10 µM, first compound 0.1 µM
[32] = second compound 10 µM, first compound 0.316 µM
[33] = second compound 10 µM, first compound 1 µM
[34] = second compound 10 µM, first compound 3.16 µM
[35] = second compound 10 µM, first compound 10 µM
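Also: spheroids exposed to agents for seven days before viability read.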

COc1cc(C2c3cc4c(cc3C(OC3OC5COC(C)OC5C(O)C3O)C3COC(=O)C23)OCO4)cc(OC)c1O (centres undefined) + CC(CO)NC(=O)c1cc(-c2ccc(Cl)cc2)nn(-c2cnn(C)c2)c1=O
351 nM: IC50 [1]
427 nM: IC50 [2]
171 nM: IC50 [5]
441 nM: IC50 [3]
243 nM: IC50 [4]
inactive: viability, T/C [6] 92.8% | viability, T/C [7] 96% | viability, T/C [8] 52.4% | viability, T/C [9] 30.1% | viability, T/C [10] 26.8% | viability, T/C [11] 21.3% | viability, T/C [12] 101% | viability, T/C [13] 90.3% | viability, T/C [14] 56.9% | viability, T/C [15] 30.3% | viability, T/C [16] 28.6% | viability, T/C [17] 23.4% | viability, T/C [18] 95.6% | viability, T/C [19] 94.9% | viability, T/C [20] 58.2% | viability, T/C [21] 30.2% | viability, T/C [22] 31.5% | viability, T/C [23] 21.7% | viability, T/C [24] 70.6% | viability, T/C [25] 73.9% | viability, T/C [26] 43.4% | viability, T/C [27] 30.8% | viability, T/C [28] 28.8% | viability, T/C [29] 22.7% | viability, T/C [30] 66.7% | viability, T/C [31] 57% | viability, T/C [32] 41.2% | viability, T/C [33] 36.5% | viability, T/C [34] 32.7% | viability, T/C [35] 23.9%

CC1COCCN1c1cc(C2(S(C)(=N)=O)CC2)nc(-c2ccnc3[nH]ccc23)n1 (centres undefined)
inactive: viability, T/C (compound 0.0316 µM) 93% and 98% and 106% | viability, T/C (compound 0.1 µM) 114% and 112% and 116% | viability, T/C (compound 0.316 µM) 90% and 106% and 85.7% | viability, T/C (compound 1 µM) 93.9% and 90.2% and 86.4% | viability, T/C (compound 3.16 µM) 76.7% and 70.4% and 43.9% | viability, T/C (compound 10 µM) 77.1% and 33.6% and 25.4%
> 10000 nM and 5910 nM and 2940 nM: IC50 (curve of compound)

Nc1ccccc1NC(=O)c1ccc(CNC(=O)OCc2cccnc2)cc1 + CC(CO)NC(=O)c1cc(-c2ccc(Cl)cc2)nn(-c2cnn(C)c2)c1=O
3250 nM: IC50 [4]
2710 nM: IC50 [5]
3990 nM: IC50 [3]
active: viability, T/C [29] 7.19% | viability, T/C [35] 1.83%
2540 nM: IC50 [2]
inactive: viability, T/C [6] 116% | viability, T/C [7] 122% | viability, T/C [8] 99.1% | viability, T/C [9] 66.3% | viability, T/C [10] 63.9% | viability, T/C [11] 26.3% | viability, T/C [12] 118% | viability, T/C [13] 112% | viability, T/C [14] 95.2% | viability, T/C [15] 61.4% | viability, T/C [16] 52.4% | viability, T/C [17] 26.7% | viability, T/C [18] 99.2% | viability, T/C [19] 109% | viability, T/C [20] 102% | viability, T/C [21] 69.5% | viability, T/C [22] 61.6% | viability, T/C [23] 25.7% | viability, T/C [24] 88% | viability, T/C [25] 90.8% | viability, T/C [26] 84.9% | viability, T/C [27] 63.9% | viability, T/C [28] 56.4% | viability, T/C [30] 82.2% | viability, T/C [31] 90.8% | viability, T/C [32] 80.9% | viability, T/C [33] 63.9% | viability, T/C [34] 50%
3830 nM: IC50 [1]

CC(C)CC(NC(=O)C(Cc1ccccc1)NC(=O)c1cnccn1)B(O)O (centres undefined)
inactive: viability, T/C (compound 0.000949 µM) 87.9% and 116% and 93.5% | viability, T/C (compound 0.003 µM) 85.2% and 98.1% and 15.2%
active: viability, T/C (compound 0.00949 µM) 0.63% and 1.24% and 0.3% | viability, T/C (compound 0.03 µM) 0.28% and 0.36% and 0.27% | viability, T/C (compound 0.0949 µM) 0.78% and 0.3% and 0.27% | viability, T/C (compound 0.3 µM) 0.76% and 0.41% and 0.31%
4.84 nM and 5.31 nM and 1.8 nM: IC50 (curve of compound)

Nc1ncn(C2CC(O)C(CO)S2)c(=O)n1 (centres undefined) + Cc1ccccc1N=Nc1ccc(NC(=O)c2ccnn2C)c(C)c1
> 300 nM: IC50 [1] | IC50 [2] | IC50 [3]
inactive: viability, T/C (second compound 0.1 µM, first compound 0.000949 µM) 83.2% | viability, T/C (second compound 0.1 µM, first compound 0.003 µM) 95.4% | viability, T/C (second compound 0.1 µM, first compound 0.00949 µM) 91.7% | viability, T/C (second compound 0.1 µM, first compound 0.03 µM) 78.5% | viability, T/C (second compound 0.1 µM, first compound 0.0949 µM) 72.6% | viability, T/C (second compound 0.1 µM, first compound 0.3 µM) 53.4% | viability, T/C (second compound 0.316 µM, first compound 0.000949 µM) 81.7% | viability, T/C (second compound 0.316 µM, first compound 0.003 µM) 90.2% | viability, T/C (second compound 0.316 µM, first compound 0.00949 µM) 98.3% | viability, T/C (second compound 0.316 µM, first compound 0.03 µM) 82.6% | viability, T/C (second compound 0.316 µM, first compound 0.0949 µM) 71.8% | viability, T/C (second compound 0.316 µM, first compound 0.3 µM) 54.3% | viability, T/C (second compound 1 µM, first compound 0.000949 µM) 97.1% | viability, T/C (second compound 1 µM, first compound 0.003 µM) 87.4% | viability, T/C (second compound 1 µM, first compound 0.00949 µM) 78.7% | viability, T/C (second compound 1 µM, first compound 0.03 µM) 78.7% | viability, T/C (second compound 1 µM, first compound 0.0949 µM) 65% | viability, T/C (second compound 1 µM, first compound 0.3 µM) 55.4% | viability, T/C (second compound 3.16 µM, first compound 0.000949 µM) 83.7% | viability, T/C (second compound 3.16 µM, first compound 0.003 µM) 85.4% | viability, T/C (second compound 3.16 µM, first compound 0.00949 µM) 66% | viability, T/C (second compound 3.16 µM, first compound 0.03 µM) 70.4% | viability, T/C (second compound 3.16 µM, first compound 0.0949 µM) 60.9% | viability, T/C (second compound 3.16 µM, first compound 0.3 µM) 48.5% | viability, T/C (second compound 10 µM, first compound 0.000949 µM) 81.6% | viability, T/C (second compound 10 µM, first compound 0.003 µM) 71.4% | viability, T/C (second compound 10 µM, first compound 0.00949 µM) 70.5% | viability, T/C (second compound 10 µM, first compound 0.03 µM) 68.8% | viability, T/C (second compound 10 µM, first compound 0.0949 µM) 65.8% | viability, T/C (second compound 10 µM, first compound 0.3 µM) 48.7%
296 nM: IC50 [5]
290 nM: IC50 [4]

CC1COCCN1c1cc(C2(S(C)(=N)=O)CC2)nc(-c2ccnc3[nH]ccc23)n1 (centres undefined) + Cc1ccccc1N=Nc1ccc(NC(=O)c2ccnn2C)c(C)c1
inactive: viability, T/C [6] 97.8% | viability, T/C [7] 96.8% | viability, T/C [8] 98.3% | viability, T/C [9] 90.4% | viability, T/C [10] 68.5% | viability, T/C [11] 34.9% | viability, T/C [12] 84.1% | viability, T/C [13] 89.5% | viability, T/C [14] 90.3% | viability, T/C [15] 80.2% | viability, T/C [16] 59% | viability, T/C [17] 32.8% | viability, T/C [18] 91.3% | viability, T/C [19] 83.5% | viability, T/C [20] 95% | viability, T/C [21] 84.6% | viability, T/C [22] 53.4% | viability, T/C [23] 34.8% | viability, T/C [24] 72.7% | viability, T/C [25] 78.2% | viability, T/C [26] 76.5% | viability, T/C [27] 68.6% | viability, T/C [28] 57.3% | viability, T/C [29] 33.2% | viability, T/C [30] 73.8% | viability, T/C [31] 69.3% | viability, T/C [32] 68.7% | viability, T/C [33] 66% | viability, T/C [34] 56.5% | viability, T/C [35] 40.8%
3880 nM: IC50 [3]
4660 nM: IC50 [2]
4600 nM: IC50 [4]
5950 nM: IC50 [1]
5120 nM: IC50 [5]

CC1COCCN1c1cc(-c2ccnn2C)c2ccnc(-c3ccn[nH]3)c2n1 (centres undefined) + CC(CO)NC(=O)c1cc(-c2ccc(Cl)cc2)nn(-c2cnn(C)c2)c1=O
inactive: viability, T/C (second compound 0.1 µM, first compound 0.00316 µM) 97% | viability, T/C (second compound 0.1 µM, first compound 0.01 µM) 110% | viability, T/C [6] 75.2% | viability, T/C [7] 44.6% | viability, T/C [8] 29.7% | viability, T/C [9] 18.6% | viability, T/C (second compound 0.316 µM, first compound 0.00316 µM) 88.6% | viability, T/C (second compound 0.316 µM, first compound 0.01 µM) 102% | viability, T/C [12] 72.7% | viability, T/C [13] 36.6% | viability, T/C [14] 26.4% | viability, T/C [15] 21.6% | viability, T/C (second compound 1 µM, first compound 0.00316 µM) 88.7% | viability, T/C (second compound 1 µM, first compound 0.01 µM) 86.6% | viability, T/C [18] 72.8% | viability, T/C [19] 37.7% | viability, T/C [20] 24.1% | viability, T/C [21] 20.4% | viability, T/C (second compound 3.16 µM, first compound 0.00316 µM) 75.9% | viability, T/C (second compound 3.16 µM, first compound 0.01 µM) 79% | viability, T/C [24] 51% | viability, T/C [25] 31.1% | viability, T/C [26] 26.7% | viability, T/C [27] 18.7% | viability, T/C (second compound 10 µM, first compound 0.00316 µM) 62.6% | viability, T/C (second compound 10 µM, first compound 0.01 µM) 63.7% | viability, T/C [30] 43.9% | viability, T/C [31] 29% | viability, T/C [32] 24.8% | viability, T/C [33] 20.1%
65 nM: IC50 [2]
81.3 nM: IC50 [1]
67.1 nM: IC50 [3]
22.5 nM: IC50 [5]
36.7 nM: IC50 [4]
